The source of these data is patent US10780090B2, “Heteroaryl compounds useful as inhibitors of SUMO activating enzyme” (Millennium Pharmaceuticals, Inc., priority 2014, dated 2020).

The assay deals with recombinant human SAE enzyme (Homo sapiens (Human), UniProt Q9UBT2). Briefly: SAE HTRF enzyme assay. The format is biochemical. Conditions: for Percent Inhibition: Concentration 0.111 μM; for IC50: class symbols A/B/C. The essentials: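 Enzyme reaction: 50 mM HEPES pH 7.5, 5 mM MgCl2, 250 μM GSH, 0.05% BSA, 0.5 μM ATP, 0.01 μM Ubc9-GST, 0.125 μM Sumo-Flag, 0.11 nM SAE; 105 min, 24° C. Stop/detect, 2 h, then HTRF. % inh or IC50.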
(Time-resolved FRET reads energy transfer from a long-lived donor to a nearby acceptor.)

Sequence of recombinant human SAE enzyme (Q9UBT2 whole entry): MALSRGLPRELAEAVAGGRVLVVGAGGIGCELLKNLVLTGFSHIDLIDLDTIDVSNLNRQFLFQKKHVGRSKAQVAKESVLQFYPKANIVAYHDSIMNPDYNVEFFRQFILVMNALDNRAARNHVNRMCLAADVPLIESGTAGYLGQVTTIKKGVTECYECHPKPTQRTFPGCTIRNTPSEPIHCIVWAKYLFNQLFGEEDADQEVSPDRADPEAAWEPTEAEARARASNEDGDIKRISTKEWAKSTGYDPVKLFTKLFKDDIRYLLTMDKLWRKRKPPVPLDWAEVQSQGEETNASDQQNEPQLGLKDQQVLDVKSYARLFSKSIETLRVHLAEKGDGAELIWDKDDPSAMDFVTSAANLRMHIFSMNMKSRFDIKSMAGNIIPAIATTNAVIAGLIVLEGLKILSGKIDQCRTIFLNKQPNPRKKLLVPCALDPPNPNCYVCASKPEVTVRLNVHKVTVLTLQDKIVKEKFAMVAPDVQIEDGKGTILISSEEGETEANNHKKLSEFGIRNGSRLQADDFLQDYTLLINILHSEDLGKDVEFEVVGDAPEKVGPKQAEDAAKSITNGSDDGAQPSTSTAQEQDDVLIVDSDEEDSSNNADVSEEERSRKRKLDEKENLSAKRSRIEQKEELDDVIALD
Sequence of recombinant human SAE enzyme (Q9UBE0 whole entry partner): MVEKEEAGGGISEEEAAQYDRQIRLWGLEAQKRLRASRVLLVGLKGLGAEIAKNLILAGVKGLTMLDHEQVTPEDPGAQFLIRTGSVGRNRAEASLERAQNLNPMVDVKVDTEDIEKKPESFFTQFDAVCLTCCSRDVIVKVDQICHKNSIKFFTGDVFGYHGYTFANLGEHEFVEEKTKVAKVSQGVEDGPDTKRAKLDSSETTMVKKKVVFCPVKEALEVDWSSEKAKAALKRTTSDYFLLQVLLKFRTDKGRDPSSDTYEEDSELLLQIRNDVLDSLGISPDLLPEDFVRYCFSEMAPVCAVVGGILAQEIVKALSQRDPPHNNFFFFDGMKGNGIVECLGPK

For `NS(=O)(=O)OC[C@H]1C[C@@H](Nc2ncncc2C(=O)c2cc([C@@H](O)c3cccc(Br)c3)c(Cl)s2)C[C@@H]1O` (single isomer, unassigned) [I-16b, 1R,2S,4R)-4-{[5-({4-[(S)-(3-Bromophenyl)(hydroxy)methyl]-5-chloro-2-thienyl}carbonyl)pyrimidin-4-yl]amino}-2-hydroxycyclopentyl]methyl sulfamate or [(1R,2S,4R)-4-{[5-({4-[(R)-(3-Bromophenyl)(hydroxy)methyl]-5-chloro-2-thienyl}carbonyl)pyrimidin-4-yl]amino}-2-hydroxycyclopentyl]methyl sulfamate], the “Percent Inhibition” value is 98 and the concentration for half-maximal inhibition (IC50) – broadly, the concentration that gives 50% inhibition – was less than 10 nM.

As to `N[C@@H](c1cccc(Br)n1)c1cc(C(=O)c2cncnc2N[C@@H]2C[C@H](COS(N)(=O)=O)[C@@H](O)C2)sc1Cl` (single isomer, unassigned) [I-18a, [(1R,2S,4R)-4-{[5-({4-[(R)-amino(6-bromopyridin-2-yl)methyl]-5-chloro-2-thienyl}carbonyl)pyrimidin-4-yl]amino}-2-hydroxycyclopentyl]methyl sulfamate or [(1R,2S,4R)-4-{[5-({4-[(S)-amino(6-bromopyridin-2-yl)methyl]-5-chloro-2-thienyl}carbonyl)pyrimidin-4-yl]amino}-2-hydroxycyclopentyl]methyl sulfamate], the “Percent Inhibition” value was 82 and the 50% inhibitory concentration (IC50) lay in the range of 10 to 100 nM.

With `N[C@@H](c1cccc(Br)n1)c1cc(C(=O)c2cncnc2N[C@@H]2C[C@H](COS(N)(=O)=O)[C@@H](O)C2)sc1Cl` (single isomer, unassigned) [I-18b, [(1R,2S,4R)-4-{[5-({4-[(R)-amino(6-bromopyridin-2-yl)methyl]-5-chloro-2-thienyl}carbonyl)pyrimidin-4-yl]amino}-2-hydroxycyclopentyl]methyl sulfamate or [(1R,2S,4R)-4-{[5-({4-[(S)-amino(6-bromopyridin-2-yl)methyl]-5-chloro-2-thienyl}carbonyl)pyrimidin-4-yl]amino}-2-hydroxycyclopentyl]methyl sulfamate], the “Percent Inhibition” value is listed as 99 and the half-maximal inhibitory concentration (IC50) was less than 10 nM.

With `NS(=O)(=O)OC[C@H]1C[C@@H](Nc2ncncc2C(=O)c2cc([C@H](O)c3cc(Br)ccc3F)cs2)C[C@@H]1O` (single isomer, unassigned) [I-19a, [(1R,2S,4R)-4-{[5-({4-[(R)-(5-bromo-2-fluorophenyl)(hydroxy)methyl]-2-thienyl}carbonyl)pyrimidin-4-yl]amino}-2-hydroxycyclopentyl]methyl sulfamate or [(1R,2S,4R)-4-{[5-({4-[(S)-(5-bromo-2-fluorophenyl)(hydroxy)methyl]-2-thienyl}carbonyl)pyrimidin-4-yl]amino}-2-hydroxycyclopentyl]methyl sulfamate], the “Percent Inhibition” value worked out at 98 and the IC50 was less than 10 nM.

`NS(=O)(=O)OC[C@H]1C[C@@H](Nc2ncncc2C(=O)c2cc([C@H](O)c3cc(Br)ccc3F)cs2)C[C@@H]1O` (single isomer, unassigned) [I-19b, [(1R,2S,4R)-4-{[5-({4-[(R)-(5-bromo-2-fluorophenyl)(hydroxy)methyl]-2-thienyl}carbonyl)pyrimidin-4-yl]amino}-2-hydroxycyclopentyl]methyl sulfamate or [(1R,2S,4R)-4-{[5-({4-[(S)-(5-bromo-2-fluorophenyl)(hydroxy)methyl]-2-thienyl}carbonyl)pyrimidin-4-yl]amino}-2-hydroxycyclopentyl]methyl sulfamate]: the “Percent Inhibition” value is recorded as 99 and the concentration for half-maximal inhibition (IC50) is less than 10 nM.

`NS(=O)(=O)OC[C@H]1C[C@@H](Nc2ncncc2C(=O)c2cc(C3(c4cccc(Cl)c4)CCCO3)cs2)C[C@@H]1O` (single isomer, unassigned) [I-20a, [(1R,2S,4R)-4-{[5-({4-[(2S)-2-(3-chlorophenyl)tetrahydrofuran-2-yl]-2-thienyl}carbonyl)pyrimidin-4-yl]amino}-2-hydroxycyclopentyl]methyl sulfamate or [(1R,2S,4R)-4-{[5-({4-[(2R)-2-(3-chlorophenyl)tetrahydrofuran-2-yl]-2-thienyl}carbonyl)pyrimidin-4-yl]amino}-2-hydroxycyclopentyl]methyl sulfamate]: the “Percent Inhibition” value stood at 81 and the concentration for half-maximal inhibition (IC50) fell in the range of 10 to 100 nM.

As for `NS(=O)(=O)OC[C@H]1C[C@@H](Nc2ncncc2C(=O)c2cc(C3(c4cccc(Cl)c4)CCCO3)cs2)C[C@@H]1O` (single isomer, unassigned) [I-20b, [(1R,2S,4R)-4-{[5-({4-[(2S)-2-(3-chlorophenyl)tetrahydrofuran-2-yl]-2-thienyl}carbonyl)pyrimidin-4-yl]amino}-2-hydroxycyclopentyl]methyl sulfamate or [(1R,2S,4R)-4-{[5-({4-[(2R)-2-(3-chlorophenyl)tetrahydrofuran-2-yl]-2-thienyl}carbonyl)pyrimidin-4-yl]amino}-2-hydroxycyclopentyl]methyl sulfamate], the “Percent Inhibition” value was determined as 99 and the IC50 was less than 10 nM.

`N[C@H](c1cccc(Br)c1)c1cc(C(=O)c2cncnc2N[C@@H]2C[C@H](COS(N)(=O)=O)[C@@H](O)C2)sc1Cl` (single isomer, unassigned) [I-22a, [(1R,2S,4R)-4-{[5-({4-[(R)-amino(3-bromophenyl)methyl]-5-chloro-2-thienyl}carbonyl)pyrimidin-4-yl]amino}-2-hydroxycyclopentyl]methyl sulfamate or [(1R,2S,4R)-4-{[5-({4-[(S)-amino(3-bromophenyl)methyl]-5-chloro-2-thienyl}carbonyl)pyrimidin-4-yl]amino}-2-hydroxycyclopentyl]methyl sulfamate]: the “Percent Inhibition” value is recorded as 83 and the half-maximal inhibitory concentration (IC50) was in the range of 10 to 100 nM.

For `N[C@H](c1cccc(Br)c1)c1cc(C(=O)c2cncnc2N[C@@H]2C[C@H](COS(N)(=O)=O)[C@@H](O)C2)sc1Cl` (single isomer, unassigned) [I-22b, [(1R,2S,4R)-4-{[5-({4-[(R)-amino(3-bromophenyl)methyl]-5-chloro-2-thienyl}carbonyl)pyrimidin-4-yl]amino}-2-hydroxycyclopentyl]methyl sulfamate or [(1R,2S,4R)-4-{[5-({4-[(S)-amino(3-bromophenyl)methyl]-5-chloro-2-thienyl}carbonyl)pyrimidin-4-yl]amino}-2-hydroxycyclopentyl]methyl sulfamate], the “Percent Inhibition” value was 99 and the half-maximal inhibitory concentration (IC50) is less than 10 nM.

For the compound `N[C@H](c1cccc(Br)c1)c1cc(C(=O)c2cncnc2N[C@@H]2C[C@H](COS(N)(=O)=O)[C@@H](O)[C@H]2O)sc1Cl` (single isomer, unassigned) [I-24a, [(1R,2R,3S,4R)-4-{[5-({4-[(R)-amino(3-bromophenyl)methyl]-5-chloro-2-thienyl}carbonyl)pyrimidin-4-yl]amino}-2,3-dihydroxycyclopentyl]methyl sulfamate or [(1R,2R,3S,4R)-4-{[5-({4-[(S)-amino(3-bromophenyl)methyl]-5-chloro-2-thienyl}carbonyl)pyrimidin-4-yl]amino}-2,3-dihydroxycyclopentyl]methyl sulfamate], the “Percent Inhibition” value worked out at 101 and the IC50 was less than 10 nM.

`N[C@H](c1cccc(Br)c1)c1cc(C(=O)c2cncnc2N[C@@H]2C[C@H](COS(N)(=O)=O)[C@@H](O)[C@H]2O)sc1Cl` (single isomer, unassigned) [I-24b, [(1R,2R,3S,4R)-4-{[5-({4-[(R)-amino(3-bromophenyl)methyl]-5-chloro-2-thienyl}carbonyl)pyrimidin-4-yl]amino}-2,3-dihydroxycyclopentyl]methyl sulfamate or [(1R,2R,3S,4R)-4-{[5-({4-[(S)-amino(3-bromophenyl)methyl]-5-chloro-2-thienyl}carbonyl)pyrimidin-4-yl]amino}-2,3-dihydroxycyclopentyl]methyl sulfamate]: the “Percent Inhibition” value is 101.

On to `N[C@H](c1cccc(Cl)n1)c1cc(C(=O)c2cncnc2N[C@@H]2C[C@H](COS(N)(=O)=O)[C@@H](O)C2)sc1Cl` (single isomer, unassigned) [I-25a, [(1R,2S,4R)-4-{[5-({4-[(S)-amino(6-chloropyridin-2-yl)methyl]-5-chloro-2-thienyl}carbonyl)pyrimidin-4-yl]amino}-2-hydroxycyclopentyl]methyl sulfamate or [(1R,2S,4R)-4-{[5-({4-[(R)-amino(6-chloropyridin-2-yl)methyl]-5-chloro-2-thienyl}carbonyl)pyrimidin-4-yl]amino}-2-hydroxycyclopentyl]methyl sulfamate], for which the “Percent Inhibition” value turned out to be 97 and the IC50 was less than 10 nM.

With `N[C@H](c1cccc(Cl)n1)c1cc(C(=O)c2cncnc2N[C@@H]2C[C@H](COS(N)(=O)=O)[C@@H](O)C2)sc1Cl` (single isomer, unassigned) [I-25b, [(1R,2S,4R)-4-{[5-({4-[(S)-amino(6-chloropyridin-2-yl)methyl]-5-chloro-2-thienyl}carbonyl)pyrimidin-4-yl]amino}-2-hydroxycyclopentyl]methyl sulfamate or [(1R,2S,4R)-4-{[5-({4-[(R)-amino(6-chloropyridin-2-yl)methyl]-5-chloro-2-thienyl}carbonyl)pyrimidin-4-yl]amino}-2-hydroxycyclopentyl]methyl sulfamate], the “Percent Inhibition” value turned out to be 99 and the 50% inhibitory concentration (IC50) was less than 10 nM.

Regarding `C[C@](N)(c1cccc(Br)c1)c1csc(C(=O)c2cncnc2N[C@@H]2C[C@H](COS(N)(=O)=O)[C@@H](O)[C@H]2O)c1` (single isomer, unassigned) [I-27a, [(1R,2R,3S,4R)-4-{[5-({4-[(1S)-1-amino-1-(3-bromophenyl)ethyl]-2-thienyl}carbonyl)pyrimidin-4-yl]amino}-2,3-dihydroxycyclopentyl]methyl sulfamate or [(1R,2R,3S,4R)-4-{[5-({4-[(1R)-1-amino-1-(3-bromophenyl)ethyl]-2-thienyl}carbonyl)pyrimidin-4-yl]amino}-2,3-dihydroxycyclopentyl]methyl sulfamate], the “Percent Inhibition” value is given as 96 and the half-inhibitory concentration (IC50) is less than 10 nM.
